The values below come from patent US20170020838A1, “TREATMENT FOR RESPIRATORY DISEASE” (MUCOKINETICA LIMITED, priority 2014, published 2017).

The assay addresses T1, Amiloride-sensitive sodium channels (ENaC) (Sus scrofa, UniProt A0A480QJ99+F1RPF1+I3LGX7).
T1 construct: placed inside the trachea in contact with the tracheal epithelium; from tissue; host or cells: ex vivo pig trachea (tracheal epithelium)
T1 sequence (A0A480QJ99 1-650): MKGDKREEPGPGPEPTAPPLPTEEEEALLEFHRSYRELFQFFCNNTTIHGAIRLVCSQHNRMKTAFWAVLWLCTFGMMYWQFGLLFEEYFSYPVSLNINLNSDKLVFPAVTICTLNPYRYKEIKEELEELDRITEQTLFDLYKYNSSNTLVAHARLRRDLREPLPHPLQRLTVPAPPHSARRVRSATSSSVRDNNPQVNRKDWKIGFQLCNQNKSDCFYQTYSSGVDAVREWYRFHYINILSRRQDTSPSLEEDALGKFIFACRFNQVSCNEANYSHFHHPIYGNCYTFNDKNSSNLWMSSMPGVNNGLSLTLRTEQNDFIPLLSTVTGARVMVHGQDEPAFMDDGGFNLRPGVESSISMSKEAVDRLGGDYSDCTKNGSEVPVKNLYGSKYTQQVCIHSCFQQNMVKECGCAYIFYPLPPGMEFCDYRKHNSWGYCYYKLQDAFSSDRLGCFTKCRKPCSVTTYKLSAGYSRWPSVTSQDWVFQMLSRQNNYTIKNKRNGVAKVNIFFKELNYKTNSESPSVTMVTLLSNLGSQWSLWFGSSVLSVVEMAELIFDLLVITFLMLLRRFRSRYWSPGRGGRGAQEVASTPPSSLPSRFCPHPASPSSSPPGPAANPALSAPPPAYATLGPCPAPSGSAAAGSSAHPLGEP
T1 sequence (I3LGX7 1-644): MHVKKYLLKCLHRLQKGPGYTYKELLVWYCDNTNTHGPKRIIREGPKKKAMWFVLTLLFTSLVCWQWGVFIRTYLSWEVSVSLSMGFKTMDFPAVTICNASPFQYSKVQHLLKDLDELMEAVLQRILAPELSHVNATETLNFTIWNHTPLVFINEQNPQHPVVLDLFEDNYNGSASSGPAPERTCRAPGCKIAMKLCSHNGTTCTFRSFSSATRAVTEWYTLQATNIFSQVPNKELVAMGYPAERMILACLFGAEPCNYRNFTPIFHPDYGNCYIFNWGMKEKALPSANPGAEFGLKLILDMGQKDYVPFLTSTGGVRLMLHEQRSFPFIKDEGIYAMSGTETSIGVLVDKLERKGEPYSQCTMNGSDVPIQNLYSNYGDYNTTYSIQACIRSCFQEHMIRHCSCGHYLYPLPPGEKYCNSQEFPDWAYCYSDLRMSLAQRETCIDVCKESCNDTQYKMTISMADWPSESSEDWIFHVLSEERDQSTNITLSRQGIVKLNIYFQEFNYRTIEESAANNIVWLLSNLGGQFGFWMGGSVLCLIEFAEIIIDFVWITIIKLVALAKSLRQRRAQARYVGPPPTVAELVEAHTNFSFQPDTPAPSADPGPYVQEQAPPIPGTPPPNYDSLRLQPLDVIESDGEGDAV
T1 sequence (F1RPF1 1-652): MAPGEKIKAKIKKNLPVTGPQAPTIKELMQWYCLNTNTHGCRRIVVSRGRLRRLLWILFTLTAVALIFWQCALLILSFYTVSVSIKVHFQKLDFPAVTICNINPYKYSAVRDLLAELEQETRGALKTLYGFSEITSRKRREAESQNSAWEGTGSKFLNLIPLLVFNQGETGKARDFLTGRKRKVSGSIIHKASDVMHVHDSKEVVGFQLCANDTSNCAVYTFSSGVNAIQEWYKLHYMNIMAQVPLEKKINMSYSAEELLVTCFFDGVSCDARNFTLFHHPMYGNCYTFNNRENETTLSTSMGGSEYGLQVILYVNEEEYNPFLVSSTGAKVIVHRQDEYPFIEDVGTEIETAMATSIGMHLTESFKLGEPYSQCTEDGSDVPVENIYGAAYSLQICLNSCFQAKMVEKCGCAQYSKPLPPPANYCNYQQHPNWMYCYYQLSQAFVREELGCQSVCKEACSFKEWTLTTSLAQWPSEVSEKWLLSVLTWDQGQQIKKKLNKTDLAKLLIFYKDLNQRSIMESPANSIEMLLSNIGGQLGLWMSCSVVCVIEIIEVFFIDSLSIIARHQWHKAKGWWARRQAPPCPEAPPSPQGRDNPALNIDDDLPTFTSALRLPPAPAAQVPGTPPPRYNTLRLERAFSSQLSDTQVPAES
Description: Amiloride-sensitive ENaC-dependent tracheal PD, ex vivo pig trachea. Conditions: for baseline tracheal PD during perfusion of the agent / responses to 5 min amiloride perfusion during perfusion of the agent: perfused in BSS: Rx 3.10^−5M alone, 50 mM sodium gluconate, 0.1 mM-UTP; for baseline tracheal PD during perfusion of the agent / responses to 5 min amiloride perfusion during perfusion of the agent / AUC of amiloride-sensitive ENaC-dependent tracheal PD responses, analysis of variance: +50 mM-NaCl, combinations with 10^−5 M Rx; for responses to 5 min amiloride perfusion during perfusion of the agent / AUC of amiloride-sensitive ENaC-dependent tracheal PD responses, analysis of variance: 100 mosM-mannitol; for AUC of amiloride-sensitive ENaC-dependent tracheal PD responses, analysis of variance: AUC normalised to average of first four peaks, Rx 3.10^−5M alone. How it is done: (§1) FIG. 1 A description of the equipment used to measure electrical potential difference (PD) across the pig trachea ex vivo (FIG. 1A). Pig tracheas placed on a sloping radiator heated at 37° C. A reference electrode consisting of silicone tubing filled with Signa electrode cream was attached to the outer surface of the trachea. A double lumen recording electrode (FIG. 1B) was placed inside the trachea in contact with the tracheal epithelium. The inner tubing of the recording electrode was used to perfuse onto the surface of the trachea buffer solutions and buffer solutions containing drugs and agents. The outer part of the recording electrode was also filled with Signa electrode cream. The ends of the electrodes not in contact with the trachea were placed in Ringer buffer solution. Electrical contact to calomel half-cells in 3M-KCl solution was achieved by silicone tubing bridges filled with Signa electrode cream. The calomel half-cells were connected to a high impedance digital electrometer (Agilent U1252A). Digital PD values were recorded continuously every 1 second for the duration each study and were filed onto a PC.
as §1, with “Pig” for “FIG. 1 A description of the equipment used to measure electrical potential difference (PD) across the pig trachea ex vivo (FIG. 1A). Pig”, “were obtained from” for “placed on”, “local abattoir or Veterinary University. The lumen of each trachea was cleaned by gentle irrigation with BSS.” for “sloping radiator heated at 37° C.”, “trachea according to the diagram in FIG. 1A. Pig tracheas were placed on a sloping radiator heated at 37° C.” for “trachea.”, “duration of” for “duration”
During each study the amiloride-sensitive, ENaC-dependent component of tracheal PD was determined periodically by perfusion (at 1 ml/min) of buffer solution containing 3×10^−6 M amiloride onto the epithelial surface of the trachea for 5 min, followed by washout for 10 minutes with buffer solution without amiloride. Each response to amiloride was quantified by measuring the area under the curve (AUC) response (mV.min) to amiloride perfusion and washout.

Molecules are shown by their SMILES.

On to `O=C([O-])[C@H](O)[C@@H](O)[C@H](O)[C@H](O)CO.[Na+]` [hyperosmotic sodium gluconate, sodium gluconate], for which the “baseline tracheal PD during perfusion of the agent” value was “partially depolarise” and the “responses to 5 min amiloride perfusion during perfusion of the agent” value (from here on “responses … of the agent”) is “decrease”.

For the compound `N=C(N)Nc1ccc(C(=O)Oc2ccc3cc(C(=N)N)ccc3c2)cc1` [6-amidino-2-napthyl 4-guanidinobenzoate], the “AUC of amiloride-sensitive ENaC-dependent tracheal PD responses, analysis of variance” value is “significant reduction (p<0.0001)”; the “baseline tracheal PD during perfusion of the agent” value is “depolarise”; the “responses … of the agent” value was “decrease”. Also, the “down-regulation of amiloride-sensitive ENaC-dependent tracheal PD responses, dose series” value (doses 3.10^−8 M, 10^−7 M, 3.10^−7 M, 10^−6 M, 3.10^−6 M, and 10^−5 M, all doses) is “Significant down-regulation”.

Consider `OC[C@@H](O)[C@@H](O)[C@H](O)[C@H](O)CO` [hyperosmotic mannitol, mannitol], for which the “AUC of amiloride-sensitive ENaC-dependent tracheal PD responses, analysis of variance” value was “significantly reduced” and the “responses … of the agent” value is “decrease”. In addition, the “responses to 5 min amiloride perfusion on final perfusion with BSS without the agent” value (washout 60 min with BSS) is reported as “recover”.

Regarding `O=c1ccn([C@@H]2O[C@H](COP(=O)(O)OP(=O)(O)OP(=O)(O)O)[C@@H](O)[C@H]2O)c(=O)[nH]1` [UTP, uridine 5′-triphosphate], the “baseline tracheal PD during perfusion of the agent” value is “partially depolarise” and the “responses … of the agent” value was “decrease”.

Turning to `N=C(N)NC(=O)c1nc(Cl)c(N)nc1N` [amiloride], where the note is “3×10^−6 M amiloride perfused 5 min in BSS at 1 ml/min, mean of 23 tracheas”, the “time for tracheal PD to reach plateau depolarisation following initiation of amiloride perfusion” value is “about 2 min”. Under “after 5 min perfusion of amiloride, washout with BSS”, the “time for tracheal PD to return to baseline after initiation of washout” value is “approximately 5 min”.
